Columns and labels:
Ribosome = assay: Inhibition of 80s ribosome in CHOK1 cells assessed as reduction in PL-tagged PCSK9 expression incubated for over night by EFC kit method; type: cell-based; conditions: Cricetulus griseus, CHO-K1
[1] = Binding affinity to MMTV-PyMT mouse MALAT1 long non-coding RNA by FRET assay

| Compound | IC50 (Ribosome) [µM] | IC50 [1] [µM] |
| --- | --- | --- |
| COc1ccc(CCC(=O)N(c2nccc3ccccc23)[C@@H]2CCCNC2)cc1 | 4.8 | – |
| N=C(NC1CCN(Cc2ccccc2)CC1)c1ccc(-c2ccc(-c3ccc(C(=N)NC4CCN(Cc5ccccc5)CC4)cc3)o2)cc1 | – | 1.3 to 2.5 |

Reference: ChEMBL document CHEMBL4354792, “Emerging modes-of-action in drug discovery” (Medchemcomm, 2019)
